Laboratory results published in patent US10040781B2, “Tank-binding kinase inhibitor compounds” (Gilead Sciences, Inc., priority 2014, dated 2018).
Read-outs that look alike come from different tables or passages of the source.

Key:
TBK1 = TBK1 (Homo sapiens (Human), UniProt Q9UHD2); test: TBK1 TR-FRET enzymatic assay;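 further: phosphorylation of a biotinylated Ser/Thr peptide by purified full-length recombinant TBK1, read by TR-FRET after 240 min at 25 °C, IC50 is the geometric mean of at least four runs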
Chain of TBK1 (Q9UHD2 whole entry): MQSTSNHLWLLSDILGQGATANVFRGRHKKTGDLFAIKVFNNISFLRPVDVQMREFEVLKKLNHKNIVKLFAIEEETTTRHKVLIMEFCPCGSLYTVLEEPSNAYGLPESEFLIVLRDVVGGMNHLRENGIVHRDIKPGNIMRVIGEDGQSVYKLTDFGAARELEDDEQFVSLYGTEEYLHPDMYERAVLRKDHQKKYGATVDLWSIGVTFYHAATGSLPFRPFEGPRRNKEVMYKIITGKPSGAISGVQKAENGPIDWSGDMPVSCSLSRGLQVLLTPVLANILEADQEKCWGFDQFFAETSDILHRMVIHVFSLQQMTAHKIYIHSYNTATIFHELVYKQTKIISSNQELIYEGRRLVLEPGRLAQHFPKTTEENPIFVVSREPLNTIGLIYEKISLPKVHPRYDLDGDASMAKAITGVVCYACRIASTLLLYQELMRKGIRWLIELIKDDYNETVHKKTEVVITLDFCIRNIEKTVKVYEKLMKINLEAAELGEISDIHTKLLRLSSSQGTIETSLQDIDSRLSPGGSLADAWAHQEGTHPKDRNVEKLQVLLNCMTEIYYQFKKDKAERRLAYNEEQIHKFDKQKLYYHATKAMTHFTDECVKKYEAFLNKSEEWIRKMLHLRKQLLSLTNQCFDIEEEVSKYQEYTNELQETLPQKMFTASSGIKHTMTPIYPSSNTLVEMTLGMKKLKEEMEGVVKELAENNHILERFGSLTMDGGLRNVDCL

hJAK2 = hJAK2 (Homo sapiens (Human), UniProt O60674); test: hJAK2 LANCE TR-FRET enzymatic assay; assay type: biochemical; conditions: read-out: JAK2 IC50
Chain of hJAK2 (O60674 whole entry): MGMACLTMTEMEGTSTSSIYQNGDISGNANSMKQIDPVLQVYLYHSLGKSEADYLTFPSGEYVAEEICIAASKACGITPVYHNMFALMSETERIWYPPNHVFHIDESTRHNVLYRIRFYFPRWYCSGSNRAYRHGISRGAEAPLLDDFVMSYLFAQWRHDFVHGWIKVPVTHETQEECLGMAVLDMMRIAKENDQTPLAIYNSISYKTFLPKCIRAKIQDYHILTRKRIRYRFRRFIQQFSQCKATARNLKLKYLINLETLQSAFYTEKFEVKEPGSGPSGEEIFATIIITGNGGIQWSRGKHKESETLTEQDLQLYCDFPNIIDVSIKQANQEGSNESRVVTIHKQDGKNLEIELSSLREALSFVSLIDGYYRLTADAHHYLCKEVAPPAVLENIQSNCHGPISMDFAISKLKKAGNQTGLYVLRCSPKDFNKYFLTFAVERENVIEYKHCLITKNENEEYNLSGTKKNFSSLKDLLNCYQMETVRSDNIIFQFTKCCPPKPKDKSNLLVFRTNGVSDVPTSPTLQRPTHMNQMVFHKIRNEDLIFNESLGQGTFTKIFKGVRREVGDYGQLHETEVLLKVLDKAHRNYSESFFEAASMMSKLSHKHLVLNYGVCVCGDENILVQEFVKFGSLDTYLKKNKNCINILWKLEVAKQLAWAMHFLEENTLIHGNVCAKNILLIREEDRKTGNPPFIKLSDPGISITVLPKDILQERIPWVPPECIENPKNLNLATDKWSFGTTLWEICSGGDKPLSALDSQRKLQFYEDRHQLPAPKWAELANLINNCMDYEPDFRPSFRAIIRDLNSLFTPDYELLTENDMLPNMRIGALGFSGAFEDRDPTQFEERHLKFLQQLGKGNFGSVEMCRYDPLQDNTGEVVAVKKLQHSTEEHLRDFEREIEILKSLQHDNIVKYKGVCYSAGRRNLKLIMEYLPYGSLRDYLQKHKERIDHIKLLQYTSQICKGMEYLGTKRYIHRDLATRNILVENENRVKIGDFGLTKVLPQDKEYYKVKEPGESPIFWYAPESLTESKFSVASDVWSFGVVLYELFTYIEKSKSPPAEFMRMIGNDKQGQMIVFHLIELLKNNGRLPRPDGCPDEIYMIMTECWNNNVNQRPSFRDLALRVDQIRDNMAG

Row | Compound | IC50 (TBK1) | IC50 (hJAK2) | IC50 (TBK1; TBK1 IC50)
1 | N#Cc1cc(-c2ncnc(Nc3ccc(N4CCO[C@@H](CO)C4)cc3)n2)ccc1O[C@H]1CCN(C(=O)CO)C[C@H]1F [Example 229, 2-(((3R,4S)-3-fluoro-1-(2-hydroxyacetyl)piperidin-4-yl)oxy)-5-(4-((4-((R)-2-(hydroxymethyl)morpholino)phenyl)amino)-1,3,5-triazin-2-yl)benzonitrile] | 0.001 µM | 0.189 µM | 
2 | C[C@H](O)C(=O)N1CC[C@@H](Oc2ccc(-c3ncnc(Nc4ccc(N5CCN(C6COC6)[C@H](C)C5)cc4)n3)cc2C#N)C(F)(F)C1 [Example 245, 2-(((R)-3,3-difluoro-1-((S)-2-hydroxypropanoyl)piperidin-4-yl)oxy)-5-(4-((4-((R)-3-methyl-4-(oxetan-3-yl)piperazin-1-yl)phenyl)amino)-1,3,5-triazin-2-yl)benzonitrile] | 0.017 µM | 0.228 µM | 
3 | C[C@H]1CN(C2COC2)CCN1c1ccc(Nc2ncnc(-c3ccc(O[C@H]4CCN(C(=O)c5nnc[nH]5)CC4(F)F)c(C#N)c3)n2)cc1 [Example 260, 2-(((S)-3,3-difluoro-1-(4H-1,2,4-triazole-3-carbonyl)piperidin-4-yl)oxy)-5-(4-((4-((S)-2-methyl-4-(oxetan-3-yl)piperazin-1-yl)phenyl)amino)-1,3,5-triazin-2-yl)benzonitrile] | 0.002 µM | 0.042 µM | 
4 | C[C@H]1CN(c2ccc(Nc3ncnc(-c4ccc(O[C@H]5CCN(C(=O)CO)CC5(F)F)c(C#N)c4)n3)cc2)CCN1C1COC1 [Example 261, 2-(((S)-3,3-difluoro-1-(2-hydroxyacetyl)piperidin-4-yl)oxy)-5-(4-((4-((S)-3-methyl-4-(oxetan-3-yl)piperazin-1-yl)phenyl)amino)-1,3,5-triazin-2-yl)benzonitrile] | 0.001 µM | 0.046 µM | 
5 | CC(=O)N1CC[C@H](Oc2ccc(-c3ncnc(Nc4ccc(C5CCNCC5)cc4)n3)cc2C#N)C(F)(F)C1 [Example 301, (S)-2-((1-acetyl-3,3-difluoropiperidin-4-yl)oxy)-5-(4-((4-(piperidin-4-yl)phenyl)amino)-1,3,5-triazin-2-yl)benzonitrile] | 0.003 µM | 0.308 µM | 
6 | CC(=O)N1CC[C@H](Oc2ccc(-c3ncnc(Nc4ccc(C5CCN(C)CC5)cc4)n3)cc2C#N)C(F)(F)C1 [Example 302, (S)-2-((1-acetyl-3,3-difluoropiperidin-4-yl)oxy)-5-(4-((4-(1-methylpiperidin-4-yl)phenyl)amino)-1,3,5-triazin-2-yl)benzonitrile] | 0.002 µM | 0.174 µM | 
7 | Cc1cc(Nc2ncnc(-c3ccc(O[C@H]4CCN(C=O)CC4(F)F)c(C#N)c3)n2)ccc1C1CCNCC1 [Example 303, (S)-2-((3,3-difluoro-1-formylpiperidin-4-yl)oxy)-5-(4-((3-methyl-4-(piperidin-4-yl)phenyl)amino)-1,3,5-triazin-2-yl)benzonitrile] | 0.001 µM | 0.29 µM | 
8 | Cc1cc(Nc2ncnc(-c3ccc(O[C@H]4CCN(C=O)CC4(F)F)c(C#N)c3)n2)ccc1C1CCN(C)CC1 [Example 304, (S)-2-((3,3-difluoro-1-formylpiperidin-4-yl)oxy)-5-(4-((3-methyl-4-(1-methylpiperidin-4-yl)phenyl)amino)-1,3,5-triazin-2-yl)benzonitrile] | 0.002 µM | ≥ 1 µM | 
9 | N#Cc1cc(-c2ncnc(Nc3ccc(C4CCN(C5COC5)CC4)cc3)n2)ccc1O[C@H]1CCN(C(=O)CO)C[C@H]1F [Example 305, 2-(((3R,4S)-3-fluoro-1-(2-hydroxyacetyl)piperidin-4-yl)oxy)-5-(4-((4-(1-(oxetan-3-yl)piperidin-4-yl)phenyl)amino)-1,3,5-triazin-2-yl)benzonitrile] | 0.002 µM | 0.292 µM | 
10 | N#Cc1cc(-c2ncnc(Nc3ccc(C4CCN(C5COC5)CC4)cc3)n2)ccc1O[C@H]1CCN(C(=O)c2ccn[nH]2)C[C@H]1F [Example 318, 2-(((3R,4S)-3-fluoro-1-(1H-pyrazole-5-carbonyl)piperidin-4-yl)oxy)-5-(4-((4-(1-(oxetan-3-yl)piperidin-4-yl)phenyl)amino)-1,3,5-triazin-2-yl)benzonitrile] | 0.002 µM | ≥ 1 µM | 
11 | COc1cc(Nc2ncnc(-c3ccc(O[C@H]4CCN(C(=O)CO)C[C@H]4F)c(C#N)c3)n2)ccc1N1CCC(N2CCOCC2)CC1 [Example 325, 2-(((3R,4S)-3-fluoro-1-(2-hydroxyacetyl)piperidin-4-yl)oxy)-5-(4-((3-methoxy-4-(4-morpholinopiperidin-1-yl)phenyl)amino)-1,3,5-triazin-2-yl)benzonitrile] | 0.002 µM | 0.028 µM | 
12 | C[C@H](O)C(=O)N1CC[C@H](Oc2ccc(-c3ncnc(Nc4ccc(N5C6COCC5C6)cc4)n3)cc2C#N)[C@H](F)C1 [Example 366, 5-(4-((4-(3-oxa-6-azabicyclo[3.1.1]heptan-6-yl)phenyl)amino)-1,3,5-triazin-2-yl)-2-(((3R,4S)-3-fluoro-1-((S)-2-hydroxypropanoyl)piperidin-4-yl)oxy)benzonitrile] |  | 0.531 µM | 0.003 µM
13 | N#CCC(=O)N1CC[C@H](Oc2ccc(-c3ncnc(Nc4ccc(N5CCN(C6COC6)CC5)c(F)c4)n3)cc2C#N)[C@H](F)C1 [Example 404, 2-(((3R,4S)-1-(2-cyanoacetyl)-3-fluoropiperidin-4-yl)oxy)-5-(4-((3-fluoro-4-(4-(oxetan-3-yl)piperazin-1-yl)phenyl)amino)-1,3,5-triazin-2-yl)benzonitrile] | 0.003 µM | 0.457 µM | 
14 | Cc1nnc(C(=O)N2CC[C@H](Oc3ccc(-c4ncnc(Nc5ccc(C6CCN(C)CC6)c(C)c5)n4)cc3C#N)[C@H](F)C2)[nH]1 [Example 490, 2-(((3R,4S)-3-fluoro-1-(5-methyl-4H-1,2,4-triazole-3-carbonyl)piperidin-4-yl)oxy)-5-(4-((3-methyl-4-(1-methylpiperidin-4-yl)phenyl)amino)-1,3,5-triazin-2-yl)benzonitrile] | 0.003 µM | 0.078 µM | 
15 | C[C@H](O)C(=O)N1CC[C@H](Oc2ccc(-c3ncnc(Nc4ccc(N5CCNCC5)cc4)n3)cc2C#N)[C@H](F)C1 [Example 497, 2-(((3R,4S)-3-fluoro-1-((S)-2-hydroxypropanoyl)piperidin-4-yl)oxy)-5-(4-((4-(piperazin-1-yl)phenyl)amino)-1,3,5-triazin-2-yl)benzonitrile] | 0.001 µM | 0.358 µM | 
16 | C[C@H](O)C(=O)N1CC[C@H](Oc2ccc(-c3ncnc(Nc4ccc(N5CCN(C)CC5)cc4)n3)cc2C#N)[C@H](F)C1 [Example 498, 2-(((3R,4S)-3-fluoro-1-((S)-2-hydroxypropanoyl)piperidin-4-yl)oxy)-5-(4-((4-(4-methylpiperazin-1-yl)phenyl)amino)-1,3,5-triazin-2-yl)benzonitrile] | 0.002 µM | 0.389 µM | 
17 | C[C@H]1CN(C)CCN1c1ccc(Nc2ncnc(-c3ccc(O[C@H]4CCN(C(=O)CO)C[C@H]4F)c(C#N)c3)n2)cc1 [Example 500, 5-(4-((4-((S)-2,4-dimethylpiperazin-1-yl)phenyl)amino)-1,3,5-triazin-2-yl)-2-(((3R,4S)-3-fluoro-1-(2-hydroxyacetyl)piperidin-4-yl)oxy)benzonitrile] | 0.002 µM | 0.182 µM | 
18 | C[C@H](O)C(=O)N1CC[C@H](Oc2ccc(-c3ncnc(Nc4ccc(N5CCN(C)C[C@@H]5C)cc4)n3)cc2C#N)[C@H](F)C1 [Example 501, 5-(4-((4-((S)-2,4-dimethylpiperazin-1-yl)phenyl)amino)-1,3,5-triazin-2-yl)-2-(((3R,4S)-3-fluoro-1-((S)-2-hydroxypropanoyl)piperidin-4-yl)oxy)benzonitrile] | 0.002 µM | 0.457 µM | 
19 | COc1cc(Nc2ncnc(-c3ccc(O[C@H]4CCN(C(=O)CO)C[C@H]4F)c(C#N)c3)n2)ccc1N1CCN(C)C[C@@H]1C [Example 508, 5-(4-((4-((S)-2,4-dimethylpiperazin-1-yl)-3-methoxyphenyl)amino)-1,3,5-triazin-2-yl)-2-(((3R,4S)-3-fluoro-1-(2-hydroxyacetyl)piperidin-4-yl)oxy)benzonitrile] | 0.002 µM | 0.049 µM | 
20 | C[C@H]1CN(C)CCN1c1ccc(Nc2ncnc(-c3ccc(O[C@H]4CCN(C(=O)[C@@H](O)CO)C[C@H]4F)c(C#N)c3)n2)cc1 [Example 515, 2-(((3R,4S)-1-((S)-2,3-dihydroxypropanoyl)-3-fluoropiperidin-4-yl)oxy)-5-(4-((4-((S)-2,4-dimethylpiperazin-1-yl)phenyl)amino)-1,3,5-triazin-2-yl)benzonitrile] | 0.002 µM | 0.355 µM | 
21 | C[C@H]1OC(=O)N[C@@H]1C(=O)N1CC[C@H](Oc2ccc(-c3ncnc(Nc4ccc(N5CCN(C6COC6)CC5)cc4)n3)cc2C#N)[C@H](F)C1 [Example 523, 2-(((3R,4S)-3-fluoro-1-((4S,5R)-5-methyl-2-oxooxazolidine-4-carbonyl)piperidin-4-yl)oxy)-5-(4-((4-(4-(oxetan-3-yl)piperazin-1-yl)phenyl)amino)-1,3,5-triazin-2-yl)benzonitrile] | 0.01 µM | 0.811 µM | 
22 | COCCNc1ccc(Nc2ncnc(-c3ccc(O[C@H]4CCN(C(=O)[C@H](C)O)C[C@H]4F)c(C#N)c3)n2)cn1 [Example 543, 2-(((3R,4S)-3-fluoro-1-((S)-2-hydroxypropanoyl)piperidin-4-yl)oxy)-5-(4-((6-((2-methoxyethyl)amino)pyridin-3-yl)amino)-1,3,5-triazin-2-yl)benzonitrile] | 0.012 µM | ≥ 1 µM | 
23 | N#Cc1cc(-c2ncnc(Nc3ccc(N4CCN(C5COC5)CC4)cc3)n2)ccc1OCCCN1CCCC1=O [Example 600, 5-(4-((4-(4-(oxetan-3-yl)piperazin-1-yl)phenyl)amino)-1,3,5-triazin-2-yl)-2-(3-(2-oxopyrrolidin-1-yl)propoxy)benzonitrile] | 0.517 µM | ≥ 1 µM | 
24 | CN1CCN(C(=O)N(C)CCOc2ccc(-c3ncnc(Nc4ccc(N5CCN(C6COC6)CC5)cc4)n3)cc2C#N)CC1 [Example 603, N-(2-(2-cyano-4-(4-((4-(4-(oxetan-3-yl)piperazin-1-yl)phenyl)amino)-1,3,5-triazin-2-yl)phenoxy)ethyl)-N,4-dimethylpiperazine-1-carboxamide] | 0.466 µM | ≥ 1 µM | 
